Calls of active or inactive are those of the source. The calls are words filed in the database; no cut-off is given here.
What was measured:
[1] = target: T1, Focal adhesion kinase 1 (Homo sapiens, UniProt Q05397); assay: Inhibition of recombinant FAK (unknown origin) by radiometric kinase assay
[2] = test system: MDA-MB-231; assay: Antiproliferative activity against human MDA-MB-231 cells assessed as growth inhibition measured after 72 hrs by CellTiter-Glo assay; type: functional; conditions: Homo sapiens, MDA-MB-231
[3] = target: T2, CYP1A2 (Homo sapiens, UniProt P05177); assay: Inhibition of CYP1A2 (unknown origin) at 10 uM relative to control; type: ADME
T2 sequence (P05177 whole entry): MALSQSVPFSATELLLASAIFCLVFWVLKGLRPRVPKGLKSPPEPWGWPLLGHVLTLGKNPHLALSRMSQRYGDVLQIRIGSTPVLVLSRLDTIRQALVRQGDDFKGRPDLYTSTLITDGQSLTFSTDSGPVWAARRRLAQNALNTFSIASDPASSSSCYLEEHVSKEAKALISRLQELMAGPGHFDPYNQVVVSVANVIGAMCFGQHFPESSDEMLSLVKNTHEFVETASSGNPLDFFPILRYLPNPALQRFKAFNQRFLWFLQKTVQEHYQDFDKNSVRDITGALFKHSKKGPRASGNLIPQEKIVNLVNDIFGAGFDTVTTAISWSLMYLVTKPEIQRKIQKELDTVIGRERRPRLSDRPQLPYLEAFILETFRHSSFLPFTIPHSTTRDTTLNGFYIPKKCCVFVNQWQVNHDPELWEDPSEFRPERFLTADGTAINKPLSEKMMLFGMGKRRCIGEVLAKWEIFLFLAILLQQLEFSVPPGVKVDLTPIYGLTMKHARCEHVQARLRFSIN

[4] = target: T3, Proto-oncogene tyrosine-protein kinase receptor Ret (Homo sapiens, UniProt P07949); assay: Inhibition of RET (unknown origin)
T3 sequence (P07949 whole entry): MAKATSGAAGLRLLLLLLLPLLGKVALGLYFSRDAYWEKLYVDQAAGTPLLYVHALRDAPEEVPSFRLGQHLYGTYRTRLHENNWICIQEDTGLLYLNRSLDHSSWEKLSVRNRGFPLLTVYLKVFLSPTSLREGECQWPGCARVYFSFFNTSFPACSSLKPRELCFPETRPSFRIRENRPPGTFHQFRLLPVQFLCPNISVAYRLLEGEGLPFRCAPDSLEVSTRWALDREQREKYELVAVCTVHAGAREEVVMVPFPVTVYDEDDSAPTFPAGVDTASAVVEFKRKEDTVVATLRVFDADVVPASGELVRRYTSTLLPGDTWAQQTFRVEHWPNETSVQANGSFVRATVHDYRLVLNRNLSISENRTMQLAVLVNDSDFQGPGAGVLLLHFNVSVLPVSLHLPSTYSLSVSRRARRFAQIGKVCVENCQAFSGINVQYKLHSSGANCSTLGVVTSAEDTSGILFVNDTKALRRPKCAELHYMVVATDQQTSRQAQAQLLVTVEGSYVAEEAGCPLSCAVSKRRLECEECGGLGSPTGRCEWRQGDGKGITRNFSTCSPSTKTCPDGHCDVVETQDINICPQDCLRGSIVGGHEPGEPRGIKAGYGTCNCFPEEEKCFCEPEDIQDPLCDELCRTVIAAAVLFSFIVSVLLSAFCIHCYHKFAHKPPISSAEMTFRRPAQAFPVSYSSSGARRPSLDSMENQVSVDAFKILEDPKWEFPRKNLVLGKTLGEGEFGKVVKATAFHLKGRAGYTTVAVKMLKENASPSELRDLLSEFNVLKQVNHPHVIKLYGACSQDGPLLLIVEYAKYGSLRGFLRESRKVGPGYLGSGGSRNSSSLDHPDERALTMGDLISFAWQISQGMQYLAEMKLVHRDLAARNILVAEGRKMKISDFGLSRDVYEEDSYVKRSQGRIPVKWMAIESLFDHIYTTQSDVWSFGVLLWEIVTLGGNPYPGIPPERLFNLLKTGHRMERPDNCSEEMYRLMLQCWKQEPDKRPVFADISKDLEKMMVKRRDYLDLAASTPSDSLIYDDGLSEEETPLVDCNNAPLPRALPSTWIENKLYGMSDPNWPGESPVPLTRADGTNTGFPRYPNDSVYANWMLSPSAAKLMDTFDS

[5] = target: T4, Proto-oncogene tyrosine-protein kinase Src (Homo sapiens, UniProt P12931); assay: Inhibition of Src (unknown origin)
T4 sequence (P12931 2-536 limits assumed): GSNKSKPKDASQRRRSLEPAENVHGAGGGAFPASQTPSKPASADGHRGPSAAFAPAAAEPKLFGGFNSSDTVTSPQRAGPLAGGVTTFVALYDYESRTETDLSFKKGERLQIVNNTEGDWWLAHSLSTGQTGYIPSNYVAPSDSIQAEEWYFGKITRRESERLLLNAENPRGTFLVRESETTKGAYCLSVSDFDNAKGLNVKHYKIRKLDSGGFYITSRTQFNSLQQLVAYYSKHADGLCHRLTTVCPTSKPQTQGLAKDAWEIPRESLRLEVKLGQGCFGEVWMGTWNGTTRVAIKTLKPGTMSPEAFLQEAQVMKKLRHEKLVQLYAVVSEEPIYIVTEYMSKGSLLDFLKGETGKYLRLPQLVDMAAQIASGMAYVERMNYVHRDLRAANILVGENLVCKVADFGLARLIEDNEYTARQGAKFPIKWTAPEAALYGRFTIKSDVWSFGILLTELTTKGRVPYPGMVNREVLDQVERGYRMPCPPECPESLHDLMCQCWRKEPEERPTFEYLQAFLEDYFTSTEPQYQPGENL

[6] = target: T3, Proto-oncogene tyrosine-protein kinase receptor Ret; assay: Inhibition of RET (unknown origin) at 0.1 uM
[7] = target: Tyrosine-protein kinase JAK1 (Homo sapiens, UniProt P23458); assay: Inhibition of JAK1 (unknown origin) at 0.1 uM
[8] = target: T4, Proto-oncogene tyrosine-protein kinase Src; assay: Inhibition of Src (unknown origin) at 0.1 uM
[9] = target: Ephrin type-B receptor 1 (Homo sapiens) (UniProt P54762); assay: Inhibition of EphB1 (unknown origin) at 0.1 uM
Sequence of Ephrin type-B receptor 1 (Homo sapiens) (P54762 whole entry): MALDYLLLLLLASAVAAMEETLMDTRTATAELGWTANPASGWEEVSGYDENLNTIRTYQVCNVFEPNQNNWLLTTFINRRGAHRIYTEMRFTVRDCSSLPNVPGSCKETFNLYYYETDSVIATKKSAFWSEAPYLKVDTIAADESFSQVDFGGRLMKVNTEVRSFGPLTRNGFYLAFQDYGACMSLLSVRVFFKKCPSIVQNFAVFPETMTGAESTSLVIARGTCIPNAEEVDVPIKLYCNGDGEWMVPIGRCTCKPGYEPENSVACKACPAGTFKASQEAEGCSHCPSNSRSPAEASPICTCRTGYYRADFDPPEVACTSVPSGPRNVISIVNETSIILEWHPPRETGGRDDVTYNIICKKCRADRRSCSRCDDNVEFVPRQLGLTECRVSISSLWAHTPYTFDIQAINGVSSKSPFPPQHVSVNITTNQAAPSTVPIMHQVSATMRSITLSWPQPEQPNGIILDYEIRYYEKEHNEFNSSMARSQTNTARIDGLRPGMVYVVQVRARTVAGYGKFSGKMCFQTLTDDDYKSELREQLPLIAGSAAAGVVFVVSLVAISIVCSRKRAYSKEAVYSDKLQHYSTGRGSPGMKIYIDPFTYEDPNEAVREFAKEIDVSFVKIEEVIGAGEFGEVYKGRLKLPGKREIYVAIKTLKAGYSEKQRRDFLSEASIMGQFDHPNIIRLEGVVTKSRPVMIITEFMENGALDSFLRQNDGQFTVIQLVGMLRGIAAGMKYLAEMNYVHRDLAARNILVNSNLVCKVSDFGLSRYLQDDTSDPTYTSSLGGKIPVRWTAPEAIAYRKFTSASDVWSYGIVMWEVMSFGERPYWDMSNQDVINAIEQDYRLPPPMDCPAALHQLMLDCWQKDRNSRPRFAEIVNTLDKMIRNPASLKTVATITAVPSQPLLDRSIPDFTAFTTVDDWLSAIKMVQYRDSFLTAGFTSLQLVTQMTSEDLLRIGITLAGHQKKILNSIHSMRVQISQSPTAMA

[10] = test system: BaF3; assay: Antiproliferative activity against mouse Ba/F3 cells harbouring FLT3 ITD F691I mutant assessed as growth inhibition measured after 72 hrs by CellTiter-Glo assay; type: functional; conditions: Mus musculus, BaF3
[11] = target: T1, Focal adhesion kinase 1; assay: Inhibition of FAK autophosphorylation at Y397 in human HCT-116 cells at 5 uM incubated for 24 hrs by Western blot analysis; type: cell-based
Target sequence in this assay (Q05397 2-1052 limits assumed): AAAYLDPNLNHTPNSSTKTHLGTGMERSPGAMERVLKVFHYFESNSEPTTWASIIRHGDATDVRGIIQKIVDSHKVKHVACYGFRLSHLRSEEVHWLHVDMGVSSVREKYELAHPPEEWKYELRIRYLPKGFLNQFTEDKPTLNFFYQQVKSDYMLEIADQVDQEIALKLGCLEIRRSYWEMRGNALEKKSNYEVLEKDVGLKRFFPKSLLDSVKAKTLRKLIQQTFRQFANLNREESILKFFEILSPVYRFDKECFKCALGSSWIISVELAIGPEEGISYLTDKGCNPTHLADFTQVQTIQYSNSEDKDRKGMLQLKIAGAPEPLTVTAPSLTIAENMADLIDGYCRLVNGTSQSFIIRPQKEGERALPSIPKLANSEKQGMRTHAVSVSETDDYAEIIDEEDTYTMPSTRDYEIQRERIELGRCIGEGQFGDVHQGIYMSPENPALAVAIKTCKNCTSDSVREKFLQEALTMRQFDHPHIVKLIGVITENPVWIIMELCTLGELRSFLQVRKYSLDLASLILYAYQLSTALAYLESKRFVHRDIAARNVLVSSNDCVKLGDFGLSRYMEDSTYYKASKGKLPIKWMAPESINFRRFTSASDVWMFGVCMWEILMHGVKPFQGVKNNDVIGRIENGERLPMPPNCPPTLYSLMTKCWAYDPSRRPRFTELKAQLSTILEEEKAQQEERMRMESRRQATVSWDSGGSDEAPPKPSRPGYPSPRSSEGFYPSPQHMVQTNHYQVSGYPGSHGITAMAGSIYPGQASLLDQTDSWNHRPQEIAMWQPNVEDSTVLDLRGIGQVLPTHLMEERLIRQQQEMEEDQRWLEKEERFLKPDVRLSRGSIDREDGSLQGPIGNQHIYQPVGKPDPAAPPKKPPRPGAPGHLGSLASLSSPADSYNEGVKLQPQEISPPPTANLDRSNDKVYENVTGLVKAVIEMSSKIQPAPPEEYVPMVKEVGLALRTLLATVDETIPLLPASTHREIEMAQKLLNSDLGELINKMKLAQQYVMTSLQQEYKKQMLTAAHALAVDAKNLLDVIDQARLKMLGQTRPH

[12] = target: T1, Focal adhesion kinase 1; assay: Inhibition of FAK autophosphorylation at Y925 in human HCT-116 cells at 5 uM incubated for 24 hrs by Western blot analysis; type: cell-based
Target sequence in this assay (Q05397 2-1052 limits assumed): as above

[13] = target: T1, Focal adhesion kinase 1; assay: Inhibition of FAK in human HCT-116 cells assessed as inhibition of Pyk2 phosphorylation at 0.5 to 5 uM incubated for 24 hrs by Western blot analysis; type: cell-based; conditions: dose 0.5-5 µM
Target sequence in this assay (Q05397 2-1052 limits assumed): as above

[14] = target: T5, Mitogen-activated protein kinase; ERK1/ERK2 (Homo sapiens) (UniProt P27361+P28482); assay: Inhibition of ERK1/2 autophosphorylation in human HCT-116 cells at 0.5 to 5 uM incubated for 24 hrs by Western blot analysis; type: cell-based; conditions: dose 0.5-5 µM
T5 sequence (P27361 whole entry, looked up): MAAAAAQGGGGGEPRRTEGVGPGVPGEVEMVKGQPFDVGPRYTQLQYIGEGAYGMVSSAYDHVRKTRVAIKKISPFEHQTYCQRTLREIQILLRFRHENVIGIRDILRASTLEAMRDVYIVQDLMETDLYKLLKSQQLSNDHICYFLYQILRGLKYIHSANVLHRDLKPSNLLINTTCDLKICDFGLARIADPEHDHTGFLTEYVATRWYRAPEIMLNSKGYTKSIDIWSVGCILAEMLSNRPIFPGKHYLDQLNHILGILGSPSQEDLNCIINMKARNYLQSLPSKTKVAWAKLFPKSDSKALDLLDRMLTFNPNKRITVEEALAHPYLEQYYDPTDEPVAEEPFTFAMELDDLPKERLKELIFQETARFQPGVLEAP
T5 sequence (P28482 whole entry, looked up): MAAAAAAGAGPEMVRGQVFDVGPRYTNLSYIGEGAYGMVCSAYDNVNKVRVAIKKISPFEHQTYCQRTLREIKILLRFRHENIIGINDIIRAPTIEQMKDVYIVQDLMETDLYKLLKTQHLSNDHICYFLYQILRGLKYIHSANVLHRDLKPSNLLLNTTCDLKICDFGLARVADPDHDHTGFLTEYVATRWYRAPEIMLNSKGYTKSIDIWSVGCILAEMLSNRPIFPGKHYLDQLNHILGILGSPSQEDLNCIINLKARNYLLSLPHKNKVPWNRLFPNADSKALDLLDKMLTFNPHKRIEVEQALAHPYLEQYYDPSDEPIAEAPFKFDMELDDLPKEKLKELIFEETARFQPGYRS

[15] = target: T5, Mitogen-activated protein kinase; ERK1/ERK2 (Homo sapiens); assay: Inhibition of ERK1/2 autophosphorylation in human MDA-MB-231 cells at 0.5 to 5 uM incubated for 24 hrs by Western blot analysis; type: cell-based; conditions: dose 0.5-5 µM
[16] = test system: HCT-116; assay: Induction of apoptosis in human HCT-116 cells assessed as cleaved PARP at 0.1 to 10 uM incubated for 24 hrs by Western blot analysis; type: functional, cell-based; conditions: dose 0.1-10 µM
[17] = test system: HCT-116; assay: Induction of apoptosis in human HCT-116 cells assessed as cleaved caspase-3 at 0.1 to 10 uM incubated for 24 hrs by Western blot analysis; type: functional, cell-based; conditions: dose 0.1-10 µM
[18] = test system: MDA-MB-231; assay: Induction of apoptosis in human MDA-MB-231 cells assessed as cleaved caspase-3 at 0.1 to 10 uM incubated for 24 hrs by Western blot analysis; type: functional, cell-based; conditions: dose 0.1-10 µM
[19] = test system: MDA-MB-231; assay: Induction of morphological changes in human MDA-MB-231 cells at 10 uM measured within 2 hrs by fluorescence analysis; type: functional, cell-based; conditions: time hrs <=2
[20] = test system: T6, Receptor-type tyrosine-protein kinase FLT3 (Homo sapiens), P36888 [D835Y]; assay: Inhibition of FLT3-D835Y mutant (unknown origin) expressed in mouse BaF3 cells assessed as decrease in STAT5 phosphorylation at 1 nM by Western blot analysis; type: cell-based
T6 sequence (whole entry): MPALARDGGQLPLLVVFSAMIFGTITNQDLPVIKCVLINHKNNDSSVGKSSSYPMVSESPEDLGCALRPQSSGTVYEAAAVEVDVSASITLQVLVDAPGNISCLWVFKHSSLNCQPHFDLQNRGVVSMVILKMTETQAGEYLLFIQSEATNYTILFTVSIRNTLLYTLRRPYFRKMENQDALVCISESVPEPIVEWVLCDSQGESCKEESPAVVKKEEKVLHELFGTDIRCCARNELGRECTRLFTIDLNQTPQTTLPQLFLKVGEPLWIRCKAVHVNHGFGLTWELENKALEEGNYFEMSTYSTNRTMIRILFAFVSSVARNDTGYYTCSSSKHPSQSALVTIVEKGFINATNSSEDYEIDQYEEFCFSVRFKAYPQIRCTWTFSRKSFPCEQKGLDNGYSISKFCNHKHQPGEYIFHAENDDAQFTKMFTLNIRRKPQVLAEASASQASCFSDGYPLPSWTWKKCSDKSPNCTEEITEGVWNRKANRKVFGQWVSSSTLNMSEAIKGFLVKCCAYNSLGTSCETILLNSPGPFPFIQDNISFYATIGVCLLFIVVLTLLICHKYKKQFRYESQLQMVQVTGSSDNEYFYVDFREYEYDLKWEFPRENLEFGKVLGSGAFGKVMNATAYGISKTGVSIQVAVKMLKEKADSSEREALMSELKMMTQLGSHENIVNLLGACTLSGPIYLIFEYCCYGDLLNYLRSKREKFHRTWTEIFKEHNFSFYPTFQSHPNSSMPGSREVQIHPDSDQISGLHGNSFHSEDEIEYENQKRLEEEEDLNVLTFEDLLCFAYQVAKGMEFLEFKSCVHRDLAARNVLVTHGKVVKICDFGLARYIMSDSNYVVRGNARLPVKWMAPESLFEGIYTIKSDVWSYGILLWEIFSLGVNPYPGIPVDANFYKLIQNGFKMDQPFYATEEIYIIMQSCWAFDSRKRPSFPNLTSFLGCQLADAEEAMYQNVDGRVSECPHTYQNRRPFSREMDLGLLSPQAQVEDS

[21] = test system: T6, Receptor-type tyrosine-protein kinase FLT3 (Homo sapiens), P36888 [D835Y]; assay: Inhibition of FLT3-D835Y mutant (unknown origin) expressed in mouse Ba/F3 cells assessed as decrease in ERK phosphorylation at 10 nM by Western blot analysis; type: cell-based; conditions: BaF3
[22] = test system: MV4-11; assay: In vivo antitumor activity against human MV4-11 cells xenografted in mouse assessed as tumor growth inhibition at 50 mg/kg, po; type: functional; conditions: MV4-11, po

IC50 [1]: 7 nM | GI50 [2]: 470 nM | inhibition at 10 µM [3]: 89.2% | IC50 [4]: 2.9 nM | IC50 [5]: 3.4 nM | inhibition [6]: 95.3% | inhibition [7]: 93.8% | inhibition [8]: 93.1% | inhibition [9]: 91.1% | GI50 [10]: 114 nM | inhibition [11]: Active | inhibition [12]: Active | inhibition [13]: Active | inhibition [14]: inactive | inhibition [15]: inactive | inhibition [20]: Active | inhibition [21]: 100%
Compound: CCN1CCN(c2ccc(Nc3ncc4scc(-c5cccc(NS(C)(=O)=O)c5)c4n3)cc2)CC1
Activity [16]: Active | Activity [17]: Active | Activity [18]: Active | Activity [19]: Active | inhibition in vivo at 50 mg/kg [22]: 96%
